Holding throughout (assay): Agar Dilution Test (NCCLS), MIC
Holding throughout (format): cell-based

Assay [1] relates to Enterobacter cloacae strains. An excerpt: (§1) In particular, the active compounds of the invention show antimicrobial, e.g. antibacterial, activity against e.g. gram negative and gram positive bacteria, e.g. […] bacteria such as Pseudomonas, e.g. Pseudomonas aeruginosa; Escherichia, e.g. Escherichia coli; Enterobacter, e.g. Enterobacter cloacae; Klebsiella, e.g. Klebsiella edwardsii, Klebsiella pneumoniae; Enterococcus, e.g. Enterococcus faecalis; Moraxella, e.g. Moraxell catarrhalis; Streptococcus, e.g. Streptococcus pneumoniae, Streptococcus pyogenes; and Staphylococcus, e.g. Staphylococcus aureus; in vitro in the Agar Dilution Test according to National Commitee for Clinical Laboratory Standards (NCCLS) 1993, Document M7-A3Vol.13, No. 25: “Methods for dilution Antimicrobial Susceptibility Tests for Bacteria that Grow Aerobically—Third Edition, Approved Standard”. […] The active compounds of the invention show an surprising overall activity spectrum.

For assay [2], the system named is Klebsiella edwardsii, strain ATCC 10896. Particulars: ATCC10896, Example 48 tested in form of the hydrochloride.
Excerpt: as §1

The test system of assay [3] is E. coli strain ATCC 10536. Conditions: Escherichia coli, ATCC10536.
Excerpt: as §1

The test system of assay [4] is E. coli strain ATCC 35218. Conditions: Escherichia coli, ATCC35218.
Excerpt: as §1

Results on 2 compounds are retold here after patent US6440957B1, “Cephalosporines having cyclic aminoguanidine substituents as antibiotics” (Biochemie Gesellschaft m.b.H., priority 1998, dated 2002).

Converted amounts (≈) assume the structure as drawn. Where only a bound is given, the exact number is not on record here.

Regarding `CCN1CCN(N=CC2=C(C(=O)O)N3C(=O)C(NC(=O)/C(=N\OCF)c4nsc(N)n4)[C@H]3SC2)C1=NC` (some centres unmarked) [Example 48, 7-{[(5-amino-1,2,4-thiadiazole-3-yl)-(Z)-(fluoromethoxyimino)-acetyl]amino}-3-{[(3-ethyl-2-methylimino-imidazolidine-1-yl)imino]methyl}-3-cephem-4-carboxylic acid], the MIC is under 0.0125 µg/mL in assay [1], about 0.8 µg/mL (≈ 1.44 µM) in assay [2], under 0.0125 µg/mL in assay [3] and under 0.0125 µg/mL in assay [4].

With `CC(C)(O/N=C(\C(=O)N[C@@H]1C(=O)N2C(C(=O)[O-])=C(C[n+]3ccccc3)CS[C@H]12)c1csc(N)n1)C(=O)O` [ceftazidime, reference compound], the MIC in assay [2] was about 1.6 µg/mL (≈ 2.93 µM).
